Test results reported in EP4603105A1, “PHARMACEUTICAL COMPOSITION CONTAINING CYCLIC COMPOUND HAVING SELECTIVE KRAS INHIBITORY EFFECT AGAINST HRAS AND NRAS” (CHUGAI SEIYAKU KABUSHIKI KAISHA, priority 2022, dated 2024).
Where a SMILES comes first, the peptide text is derived from it. Bridges are numbered along the chain shown (N, C = ends). [ ]: non-standard residue; d: D form. The star is where a group is joined. hPhe(3-Cl-4-CF3) = N[C@@H](CCc1ccc(C(F)(F)F)c(Cl)c1)C(=O)O; NPrPhe(4-CF3) = CCCN[C@@H](Cc1ccc(C(F)(F)F)cc1)C(=O)O; NMePhe(4-Me) = CN[C@@H](Cc1ccc(C)cc1)C(=O)O; NMeGly(cPent) = CN[C@H](C(=O)O)C1CCCC1; NMeD = CN[C@@H](CC(=O)O)C(=O)O; NMeL = CN[C@@H](CC(C)C)C(=O)O; NMeS = CN[C@@H](CO)C(=O)O; Morpholide = C1CN(*)CCO1; NMeAib = CNC(C)(C)C(=O)O; Nle = CCCC[C@H](N)C(=O)O; Piperidide = C1CCN(*)CC1; Ac5c = NC1(C(=O)O)CCCC1; Aze = O=C(O)[C@@H]1CCN1; Ac4c = NC1(C(=O)O)CCC1; Sar = CNCC(=O)O

Tests used:
[1] = target: GDP-bound NRAS wild-type protein (Homo sapiens, UniProt P01111); experiment: Binding to NRAS by surface plasmon resonance (SPR), KD and KD ratio to KRAS
Chain of GDP-bound NRAS wild-type protein (P01111 whole entry): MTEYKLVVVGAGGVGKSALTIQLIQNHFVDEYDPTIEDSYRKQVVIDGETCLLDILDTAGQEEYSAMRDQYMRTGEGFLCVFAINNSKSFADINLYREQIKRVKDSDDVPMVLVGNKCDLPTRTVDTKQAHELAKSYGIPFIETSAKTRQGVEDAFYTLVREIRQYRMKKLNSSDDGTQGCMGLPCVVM
Summary of the method: (§1)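 Compound binding is evaluated by SPR single-cycle kinetics, with concentrations added intermittently from low to high for 75 s each. Target surfaces carry GDP-loaded biotinylated Avi-RAS at about 100–300 RU, regenerated after each cycle; temperature 30°C. A 1:1 binding model gives KD.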

[2] = test system: human lung cancer strain NCI-H441; format: cell-based
Summary of the method: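 Proliferation was scored by […] measured after the reagent was added to cultures kept at 37°C in 5% carbon dioxide.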

HRAS wild-type protein = HRAS wild-type protein (Homo sapiens, UniProt P01112); experiment: Binding to HRAS by surface plasmon resonance (SPR), KD and KD ratio to KRAS
Chain of HRAS wild-type protein (P01112 whole entry): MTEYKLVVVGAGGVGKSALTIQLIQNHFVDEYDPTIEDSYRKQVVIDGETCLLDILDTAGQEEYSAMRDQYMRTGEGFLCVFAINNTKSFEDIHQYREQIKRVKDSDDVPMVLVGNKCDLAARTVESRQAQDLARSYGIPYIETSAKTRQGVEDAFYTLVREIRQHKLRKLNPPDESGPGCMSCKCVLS
Summary of the method: as §1

[3] = ratio of KD for GDP-bound NRAS wild-type protein to KD for KRAS
[4] = ratio of KD for HRAS wild-type protein to KD for KRAS
[5] = ratio of the KD value with respect to GDP-bound NRAS wild-type protein to the KD value with respect to KRAS
[6] = ratio of the KD value with respect to HRAS wild-type protein to the KD value with respect to KRAS
[7] = ratio of KD value for GDP-bound NRAS wild-type protein to KD value for KRAS (SPR)
[8] = ratio of KD value for HRAS wild-type protein to KD value for KRAS (SPR)

Row | SMILES | IC50 [2] [nM] | NRAS /KRAS [1, 3] | HRAS /KRAS (HRAS wild-type protein; [4]) | further results
1 | CCO[C@@H]1C[C@H]2C(=O)NC3(CCC3)C(=O)N(C)[C@@H](C3CCCC3)C(=O)N(C)[C@H](C(=O)N(C)CCOC)CC(=O)N(C)[C@@H](CC(F)F)C(=O)N[C@@H]([C@@H](C)CC)C(=O)N(C)CC(=O)N(C)[C@H]3C/C=C\CCN(C3=O)[C@@H](Cc3ccc(C(F)(F)F)cc3)C(=O)N(C)CC(=O)N[C@@H](CCc3cc(F)c(C(F)(F)F)c(F)c3)C(=O)N2C1 [PP1320] | 7.7 |  |  | NRAS /KRAS ([1]; ratio of KD with respect to GDP-bound NRAS wild-type protein to KD with respect to KRAS): A (a compound having 10 or more and less than 20 is denoted as A); HRAS /KRAS (HRAS wild-type protein; ratio of KD with respect to HRAS wild-type protein to KD with respect to KRAS): A (a compound having 10 or more and less than 20 is denoted as A)
2 | CCCC[C@@H]1NC(=O)[C@H](CCc2ccc(C(F)(F)F)c(Cl)c2)NC(=O)CN(C)C(=O)[C@H](Cc2ccc(C)cc2)N(C)C(=O)CN(C)C(=O)CN(C)C(=O)[C@H]([C@@H](C)CC)NC(=O)[C@H](CC(C)C)N(C)C(=O)C[C@@H](C(=O)N2CCCCC2)N(C)C(=O)[C@H](CC(C)C)NC(=O)C(C)(C)N(C)C1=O [PP0049] ([NMeL]I[Sar][Sar][NMePhe(4-Me)][Sar][hPhe(3-Cl-4-CF3)][Nle][NMeAib]L[NMeD]-Piperidide; lactam N-11) | 201 | C (A compound having a KD ratio of 0.1 or more and less than 3 is denoted as C) | C (A compound having a KD ratio of 0.1 or more and less than 3 is denoted as C) | 
3 | CCCN1C(=O)CN(C)C(=O)[C@@H]2CCCN2C(=O)[C@H]([C@@H](C)CC)NC(=O)[C@H](CC(C)C)N(C)C(=O)C[C@@H](C(=O)N2CCOCC2)N(C)C(=O)[C@H](C2CCCC2)N(C)C(=O)C2(CCCC2)NC(=O)[C@@H]2CCCN2C(=O)[C@H](CCc2ccc(C(F)(F)F)c(Cl)c2)NC(=O)CN(C)C(=O)[C@@H]1Cc1ccc(C(F)(F)F)cc1 [PP0165] ([NMeL]IP[Sar][NPrPhe(4-CF3)][Sar][hPhe(3-Cl-4-CF3)]P[Ac5c][NMeGly(cPent)][NMeD]-Morpholide; lactam N-11) | 35 | B (a compound having 3 or more and less than 10 is denoted as B) | B (a compound having 3 or more and less than 10 is denoted as B) | 
4 | CCCN1C(=O)CN(C)C(=O)[C@@H]2CCN2C(=O)[C@H]([C@@H](C)CC)NC(=O)[C@H](CC(C)C)N(C)C(=O)C[C@@H](C(=O)N(C)C)N(C)C(=O)[C@H](C2CCCC2)N(C)C(=O)C2(CCC2)NC(=O)[C@@H]2CCCN2C(=O)[C@H](CCc2ccc(C(F)(F)F)c(Cl)c2)NC(=O)CN(C)C(=O)[C@@H]1Cc1ccc(C(F)(F)F)cc1 [PP0430] ([NMeL]I[Aze][Sar][NPrPhe(4-CF3)][Sar][hPhe(3-Cl-4-CF3)]P[Ac4c][NMeGly(cPent)][NMeD]-NMe2; lactam N-11) | 27.9 |  |  | NRAS /KRAS [1, 5]: B (a compound having 3 or more and less than 10 is denoted as B); HRAS /KRAS (HRAS wild-type protein; [6]): B (a compound having 3 or more and less than 10 is denoted as B)
5 | CC[C@H](C)[C@@H]1NC(=O)[C@H](CC(C)C)N(C)C(=O)C[C@@H](C(=O)N2CCOCC2)N(C)C(=O)[C@H](C2CCCC2)N(C)C(=O)C2(CCC2)NC(=O)[C@@H]2[C@H](OC)CCN2C(=O)[C@H](CCc2cc(F)c(C(F)(F)F)c(F)c2)NC(=O)CN(C)C(=O)[C@H](Cc2ccc(C(F)(F)F)cc2)N2CCCC[C@@H](C2=O)N(C)C(=O)CN(C)C1=O [PP1084] | 83.9 | C (A compound having a KD ratio of 0.1 or more and less than 3 is denoted as C) | B (a compound having 3 or more and less than 10 is denoted as B) | 
6 | CCO[C@@H]1C[C@H]2C(=O)NC3(CCC3)C(=O)N(C)[C@@H](C3CCCC3)C(=O)N(C)[C@H](C(=O)N3CCOCC3)CC(=O)N(C)[C@@H](CCOC)C(=O)N[C@@H]([C@@H](C)CC)C(=O)N(C)CC(=O)N(C)[C@H]3CCCCN(C3=O)[C@@H](Cc3ccc(C(F)(F)F)cc3)C(=O)N(C)CC(=O)N[C@@H](CCc3cc(F)c(C(F)(F)F)c(F)c3)C(=O)N2C1 [PP0720] | 13.7 |  |  | NRAS /KRAS [1, 5]: C (A compound having a KD ratio of 0.1 or more and less than 3 is denoted as C); HRAS /KRAS (HRAS wild-type protein; [6]): B (a compound having 3 or more and less than 10 is denoted as B)
7 | CCO[C@@H]1C[C@H]2C(=O)NC3(CCC3)C(=O)N(C)[C@@H](C3CCCC3)C(=O)N(C)[C@H](C(=O)N3CCOCC3)CC(=O)N(C)[C@@H](CC3CCC3)C(=O)N[C@@H]([C@@H](C)CC)C(=O)N(C)CC(=O)N(C)[C@H]3CCCCN(C3=O)[C@@H](Cc3ccc(C(F)(F)F)cc3)C(=O)N(C)CC(=O)N[C@@H](CCc3cc(F)c(C(F)(F)F)c(F)c3)C(=O)N2C1 [PP0713] | 4.2 |  |  | NRAS /KRAS [1, 5]: C (A compound having a KD ratio of 0.1 or more and less than 3 is denoted as C); HRAS /KRAS (HRAS wild-type protein; [6]): B (a compound having 3 or more and less than 10 is denoted as B)
8 | CCO[C@@H]1C[C@H]2C(=O)NC3(CCC3)C(=O)N(C)[C@@H](C3CCCC3)C(=O)N(C)[C@H](C(=O)N3CCOCC3)CC(=O)N(C)[C@@H](CC(C)C)C(=O)N[C@@H]([C@@H](C)CC)C(=O)N(C)CC(=O)N(C)[C@H]3CCCCCN(C3=O)[C@@H](Cc3ccc4ccsc4c3)C(=O)N(C)CC(=O)N[C@@H](CCc3cc(F)c(C(F)(F)F)c(F)c3)C(=O)N2C1 [PP0921] | 139 | B (a compound having 3 or more and less than 10 is denoted as B) | B (a compound having 3 or more and less than 10 is denoted as B) | 
9 | CCO[C@@H]1C[C@H]2C(=O)NC3(CCC3)C(=O)N(C)[C@@H](C(C)(C)C)C(=O)N(C)[C@H](C(=O)N3CCOCC3)CC(=O)N(C)[C@@H](CC(C)C)C(=O)N[C@@H]([C@@H](C)CC)C(=O)N(C)CC(=O)N(C)[C@H]3CCCCCN(C3=O)[C@@H](Cc3ccc(C(F)(F)F)cc3)C(=O)N(C)CC(=O)N[C@@H](CCc3cc(F)c(C(F)(F)F)c(F)c3)C(=O)N2C1 [PP0823] | 130 | A (a compound having 10 or more and less than 20 is denoted as A) | B (a compound having 3 or more and less than 10 is denoted as B) | 
10 | CCO[C@@H]1C[C@H]2C(=O)NC3(CC(C)(C)C3)C(=O)N(C)[C@@H](C3CCCC3)C(=O)N(C)[C@H](C(=O)N(C)C)CC(=O)N(C)[C@@H](CC(F)(F)F)C(=O)N[C@@H]([C@@H](C)CC)C(=O)N(C)CC(=O)N(C)[C@H]3C/C=C\CCN(C3=O)[C@@H](Cc3ccc(C(F)(F)F)cc3)C(=O)N(C)CC(=O)N[C@@H](CCc3ccc(C(F)(F)F)c(OC)c3)C(=O)N2C1 [PP1675] | 3 |  |  | NRAS /KRAS [1, 7]: A (a compound having 10 or more and less than 20 is denoted as A); HRAS /KRAS (HRAS wild-type protein; [8]): B (a compound having 3 or more and less than 10 is denoted as B)
11 | C#CC[C@H]1C(=O)N[C@@H]([C@@H](C)CC)C(=O)N(C)CC(=O)N(C)[C@H]2C/C=C\CCN(C2=O)[C@@H](Cc2ccc(C(F)(F)F)cc2)C(=O)N(C)CC(=O)N[C@@H](CCc2cc(F)c(C(F)(F)F)c(F)c2)C(=O)N2C[C@H](OCC)C[C@H]2C(=O)NC2(CC(F)(F)C2)C(=O)N(C)[C@@H](C2CCCC2)C(=O)N(C)[C@H](C(=O)N(C)CCC)CC(=O)N1C [PP1737] | 2.7 |  |  | NRAS /KRAS [1, 7]: A (a compound having 10 or more and less than 20 is denoted as A); HRAS /KRAS (HRAS wild-type protein; [8]): A (a compound having 10 or more and less than 20 is denoted as A)
12 | CCC[C@H]1C(=O)N[C@@H]([C@@H](C)CC)C(=O)N(C)CC(=O)N(C)[C@H]2C/C=C\CCN(C2=O)[C@@H](Cc2ccc(C(F)(F)F)cc2)C(=O)N(C)CC(=O)N[C@@H](CCc2cc(F)c(C(F)(F)F)c(F)c2)C(=O)N2C[C@H](OCC)C[C@H]2C(=O)NC2(CC(F)(F)C2)C(=O)N(C)[C@@H](C2CCCC2)C(=O)N(C)[C@H](C(=O)N(C)CCC)CC(=O)N1C [PP1736] | 3.6 |  |  | NRAS /KRAS [1, 7]: A (a compound having 10 or more and less than 20 is denoted as A); HRAS /KRAS (HRAS wild-type protein; [8]): A (a compound having 10 or more and less than 20 is denoted as A)
13 | CCC[C@H]1C(=O)N[C@@H]([C@@H](C)CC)C(=O)N(C)CC(=O)N(C)[C@H]2C/C=C\CCN(C2=O)[C@@H](Cc2ccc(C(F)(F)F)cc2)C(=O)N(C)CC(=O)N[C@@H](CCc2ccc(C(F)(F)F)c(CC)c2)C(=O)N2C[C@H](OCC)C[C@H]2C(=O)NC2(CC(C)(C)C2)C(=O)N(C)[C@@H](C2CCCC2)C(=O)N(C)[C@H](C(=O)N(C)C)CC(=O)N1C [PP2861] | 6.3 | A (a compound having 10 or more and less than 20 is denoted as A) | B (a compound having 3 or more and less than 10 is denoted as B) | 
14 | CCCN1C(=O)CN(C)C(=O)CN(C)C(=O)[C@H]([C@@H](C)CC)NC(=O)[C@H](CC(C)C)N(C)C(=O)C[C@@H](C(=O)N2CCOCC2)N(C)C(=O)[C@H](C2CCCC2)N(C)C(=O)C2(CCCC2)NC(=O)[C@H](COC)N(C)C(=O)[C@H](CCc2ccc(C(F)(F)F)c(Cl)c2)NC(=O)CN(C)C(=O)[C@@H]1Cc1ccc(C(F)(F)F)cc1 [PP1920] ([NMeL]I[Sar][Sar][NPrPhe(4-CF3)][Sar][hPhe(3-Cl-4-CF3)][NMeS](Me)[Ac5c][NMeGly(cPent)][NMeD]-Morpholide; lactam N-11) | 32.4 |  |  | NRAS /KRAS [1, 5]: B (a compound having 3 or more and less than 10 is denoted as B); HRAS /KRAS (HRAS wild-type protein; [6]): C (A compound having a KD ratio of 0.1 or more and less than 3 is denoted as C)
